Experiments:
Assay in all cases: Ray2010 Assay 74
[1] = molecular target: Muscarinic acetylcholine receptor M3 (Homo sapiens, UniProt P20309)
Text: (§1) Table S2 shows raw Ki data for the current study combined with data collected from the literature for the ten additional compounds.

Vasopressin V1b receptor = molecular target: T1, Vasopressin V1b receptor (Homo sapiens, UniProt P47901)
T1 sequence (P47901 whole entry): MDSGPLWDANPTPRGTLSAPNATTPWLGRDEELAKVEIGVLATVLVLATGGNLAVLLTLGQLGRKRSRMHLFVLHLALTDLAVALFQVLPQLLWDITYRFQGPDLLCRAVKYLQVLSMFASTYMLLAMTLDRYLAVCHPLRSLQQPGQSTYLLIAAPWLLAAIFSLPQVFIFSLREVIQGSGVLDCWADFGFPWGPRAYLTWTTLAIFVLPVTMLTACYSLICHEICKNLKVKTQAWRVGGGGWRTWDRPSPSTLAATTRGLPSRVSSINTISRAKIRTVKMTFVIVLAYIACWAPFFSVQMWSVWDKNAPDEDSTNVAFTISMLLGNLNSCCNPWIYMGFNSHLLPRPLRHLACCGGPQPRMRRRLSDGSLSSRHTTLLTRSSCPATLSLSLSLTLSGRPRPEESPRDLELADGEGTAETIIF
Text: as §1

[2] = molecular target: Voltage-dependent calcium channel subunit alpha-2/delta-1 (Homo sapiens, UniProt P54289)
Text: as §1

[3] = molecular target: 5-hydroxytryptamine receptor 7 (Homo sapiens, UniProt P34969)
Text: as §1

D(1B) dopamine receptor = D(1B) dopamine receptor (Homo sapiens, UniProt P21918)
Text: as §1

[4] = molecular target: T2, Muscarinic acetylcholine receptor M4 (Homo sapiens, UniProt P08173)
T2 sequence (P08173 whole entry): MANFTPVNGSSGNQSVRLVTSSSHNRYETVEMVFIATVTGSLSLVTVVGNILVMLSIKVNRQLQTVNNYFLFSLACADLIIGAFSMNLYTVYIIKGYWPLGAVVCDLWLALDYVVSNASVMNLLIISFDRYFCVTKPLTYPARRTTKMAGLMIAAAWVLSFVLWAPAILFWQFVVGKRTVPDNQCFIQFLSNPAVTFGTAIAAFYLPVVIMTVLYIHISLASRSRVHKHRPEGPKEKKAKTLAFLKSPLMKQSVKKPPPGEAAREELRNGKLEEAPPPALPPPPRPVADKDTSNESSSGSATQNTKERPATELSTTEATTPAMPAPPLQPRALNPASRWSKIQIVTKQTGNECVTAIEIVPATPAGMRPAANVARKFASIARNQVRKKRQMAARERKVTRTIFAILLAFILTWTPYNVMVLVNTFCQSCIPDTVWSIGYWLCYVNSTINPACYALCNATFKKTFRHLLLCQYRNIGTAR
Text: as §1

[5] = molecular target: T3, Prostaglandin E2 receptor EP3 subtype (Homo sapiens, UniProt P43115)
T3 sequence (P43115 whole entry): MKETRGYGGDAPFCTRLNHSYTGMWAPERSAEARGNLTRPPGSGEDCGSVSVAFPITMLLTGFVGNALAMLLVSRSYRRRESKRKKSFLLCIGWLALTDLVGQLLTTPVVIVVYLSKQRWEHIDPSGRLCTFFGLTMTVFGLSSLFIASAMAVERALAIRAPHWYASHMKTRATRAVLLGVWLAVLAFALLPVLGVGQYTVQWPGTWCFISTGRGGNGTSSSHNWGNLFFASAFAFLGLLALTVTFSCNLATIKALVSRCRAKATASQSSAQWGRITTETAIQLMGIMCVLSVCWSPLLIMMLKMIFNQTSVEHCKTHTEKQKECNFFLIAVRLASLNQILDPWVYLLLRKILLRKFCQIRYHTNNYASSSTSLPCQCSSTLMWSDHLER
Text: as §1

Vasopressin V1a receptor = Vasopressin V1a receptor (Homo sapiens, UniProt P37288)
Text: as §1

Cannabinoid receptor 2 = Cannabinoid receptor 2 (Homo sapiens, UniProt P34972)
Text: as §1

Histamine H3 receptor = Histamine H3 receptor (Homo sapiens, UniProt Q9Y5N1)
Text: as §1

[6] = molecular target: Sigma non-opioid intracellular receptor 1 (Homo sapiens, UniProt Q99720)
Text: as §1

Cannabinoid receptor 1 = Cannabinoid receptor 1 (Homo sapiens, UniProt P21554)
Text: as §1

Histamine H4 receptor = Histamine H4 receptor (Homo sapiens, UniProt Q9H3N8)
Text: as §1

[7] = molecular target: T4, Gamma-aminobutyric acid receptor subunit alpha-1/Adenosine receptor A1 (Homo sapiens, UniProt P14867+P30542)
T4 sequence (P30542 whole entry): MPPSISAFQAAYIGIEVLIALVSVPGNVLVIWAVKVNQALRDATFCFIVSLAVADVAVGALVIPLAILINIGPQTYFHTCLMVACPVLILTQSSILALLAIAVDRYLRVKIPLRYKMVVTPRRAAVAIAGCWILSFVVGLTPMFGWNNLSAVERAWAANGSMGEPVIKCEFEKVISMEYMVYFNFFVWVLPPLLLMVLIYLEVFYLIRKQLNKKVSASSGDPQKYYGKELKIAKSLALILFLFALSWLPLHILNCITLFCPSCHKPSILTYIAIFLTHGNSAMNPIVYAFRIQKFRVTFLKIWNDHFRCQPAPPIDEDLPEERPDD
T4 sequence (P14867 whole entry): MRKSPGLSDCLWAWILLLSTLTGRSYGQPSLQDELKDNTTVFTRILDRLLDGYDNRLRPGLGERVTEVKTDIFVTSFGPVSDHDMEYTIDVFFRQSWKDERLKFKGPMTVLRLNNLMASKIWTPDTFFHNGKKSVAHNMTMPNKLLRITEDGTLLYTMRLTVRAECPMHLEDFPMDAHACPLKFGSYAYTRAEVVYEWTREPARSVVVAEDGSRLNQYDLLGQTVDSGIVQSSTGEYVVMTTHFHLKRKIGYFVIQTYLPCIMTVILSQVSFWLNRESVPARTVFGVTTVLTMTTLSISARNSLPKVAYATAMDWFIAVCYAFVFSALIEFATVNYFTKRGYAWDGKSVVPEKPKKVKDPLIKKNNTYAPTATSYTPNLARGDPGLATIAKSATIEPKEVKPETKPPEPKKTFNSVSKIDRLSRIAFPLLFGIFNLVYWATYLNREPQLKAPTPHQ
Text: as §1

[8] = molecular target: 5-hydroxytryptamine receptor 5A (Homo sapiens, UniProt P47898)
Text: as §1

Measured: Ki

Sequence of Muscarinic acetylcholine receptor M3 (P20309 whole entry): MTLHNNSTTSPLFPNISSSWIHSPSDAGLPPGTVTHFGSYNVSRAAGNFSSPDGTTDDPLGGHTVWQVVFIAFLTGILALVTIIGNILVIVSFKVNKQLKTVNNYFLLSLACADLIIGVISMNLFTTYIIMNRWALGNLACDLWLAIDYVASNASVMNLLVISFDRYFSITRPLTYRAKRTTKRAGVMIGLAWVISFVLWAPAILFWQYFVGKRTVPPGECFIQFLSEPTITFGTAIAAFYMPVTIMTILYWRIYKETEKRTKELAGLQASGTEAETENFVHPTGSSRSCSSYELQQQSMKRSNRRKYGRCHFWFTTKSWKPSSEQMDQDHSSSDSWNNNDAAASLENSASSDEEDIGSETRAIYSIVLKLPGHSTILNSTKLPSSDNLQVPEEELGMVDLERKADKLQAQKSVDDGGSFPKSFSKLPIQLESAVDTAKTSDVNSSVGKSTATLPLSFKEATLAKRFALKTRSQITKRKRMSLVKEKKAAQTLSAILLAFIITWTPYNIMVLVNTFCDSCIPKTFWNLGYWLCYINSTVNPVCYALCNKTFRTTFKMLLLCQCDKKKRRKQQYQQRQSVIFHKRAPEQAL
Sequence of 5-hydroxytryptamine receptor 7 (P34969 whole entry): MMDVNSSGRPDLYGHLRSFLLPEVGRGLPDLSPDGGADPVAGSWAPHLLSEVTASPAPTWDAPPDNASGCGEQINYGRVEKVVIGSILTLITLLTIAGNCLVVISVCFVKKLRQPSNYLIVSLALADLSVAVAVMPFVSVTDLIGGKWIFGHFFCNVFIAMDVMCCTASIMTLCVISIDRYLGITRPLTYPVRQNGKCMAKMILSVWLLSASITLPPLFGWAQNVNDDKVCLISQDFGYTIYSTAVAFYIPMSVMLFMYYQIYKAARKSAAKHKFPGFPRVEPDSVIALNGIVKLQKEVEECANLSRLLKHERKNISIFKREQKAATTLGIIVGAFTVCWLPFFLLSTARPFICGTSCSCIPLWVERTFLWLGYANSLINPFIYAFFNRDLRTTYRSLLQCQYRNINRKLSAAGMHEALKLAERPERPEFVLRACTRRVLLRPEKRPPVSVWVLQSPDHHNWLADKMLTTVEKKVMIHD
Sequence of Histamine H4 receptor (Q9H3N8 whole entry): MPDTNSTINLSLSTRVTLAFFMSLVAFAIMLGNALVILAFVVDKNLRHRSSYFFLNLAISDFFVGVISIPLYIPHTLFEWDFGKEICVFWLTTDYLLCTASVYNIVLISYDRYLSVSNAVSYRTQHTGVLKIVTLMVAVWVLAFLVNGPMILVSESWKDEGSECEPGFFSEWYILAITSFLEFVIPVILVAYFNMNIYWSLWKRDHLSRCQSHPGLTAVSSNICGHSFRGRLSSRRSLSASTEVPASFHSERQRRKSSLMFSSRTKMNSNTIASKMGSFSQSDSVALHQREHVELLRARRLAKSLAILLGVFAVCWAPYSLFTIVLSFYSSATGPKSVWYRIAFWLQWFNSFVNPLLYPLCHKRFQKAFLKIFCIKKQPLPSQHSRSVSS
Sequence of Cannabinoid receptor 2 (P34972 whole entry): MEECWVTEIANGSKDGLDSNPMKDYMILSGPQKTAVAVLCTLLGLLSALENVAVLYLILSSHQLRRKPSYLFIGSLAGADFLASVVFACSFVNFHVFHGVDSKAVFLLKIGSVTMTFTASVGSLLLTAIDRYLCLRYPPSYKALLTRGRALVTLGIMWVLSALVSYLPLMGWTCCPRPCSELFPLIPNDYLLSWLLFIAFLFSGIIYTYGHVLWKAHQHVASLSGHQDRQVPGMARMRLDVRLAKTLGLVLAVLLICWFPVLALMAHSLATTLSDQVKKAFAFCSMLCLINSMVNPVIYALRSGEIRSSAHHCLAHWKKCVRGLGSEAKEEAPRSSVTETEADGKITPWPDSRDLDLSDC
Sequence of Voltage-dependent calcium channel subunit alpha-2/delta-1 (P54289 25-956 limits assumed): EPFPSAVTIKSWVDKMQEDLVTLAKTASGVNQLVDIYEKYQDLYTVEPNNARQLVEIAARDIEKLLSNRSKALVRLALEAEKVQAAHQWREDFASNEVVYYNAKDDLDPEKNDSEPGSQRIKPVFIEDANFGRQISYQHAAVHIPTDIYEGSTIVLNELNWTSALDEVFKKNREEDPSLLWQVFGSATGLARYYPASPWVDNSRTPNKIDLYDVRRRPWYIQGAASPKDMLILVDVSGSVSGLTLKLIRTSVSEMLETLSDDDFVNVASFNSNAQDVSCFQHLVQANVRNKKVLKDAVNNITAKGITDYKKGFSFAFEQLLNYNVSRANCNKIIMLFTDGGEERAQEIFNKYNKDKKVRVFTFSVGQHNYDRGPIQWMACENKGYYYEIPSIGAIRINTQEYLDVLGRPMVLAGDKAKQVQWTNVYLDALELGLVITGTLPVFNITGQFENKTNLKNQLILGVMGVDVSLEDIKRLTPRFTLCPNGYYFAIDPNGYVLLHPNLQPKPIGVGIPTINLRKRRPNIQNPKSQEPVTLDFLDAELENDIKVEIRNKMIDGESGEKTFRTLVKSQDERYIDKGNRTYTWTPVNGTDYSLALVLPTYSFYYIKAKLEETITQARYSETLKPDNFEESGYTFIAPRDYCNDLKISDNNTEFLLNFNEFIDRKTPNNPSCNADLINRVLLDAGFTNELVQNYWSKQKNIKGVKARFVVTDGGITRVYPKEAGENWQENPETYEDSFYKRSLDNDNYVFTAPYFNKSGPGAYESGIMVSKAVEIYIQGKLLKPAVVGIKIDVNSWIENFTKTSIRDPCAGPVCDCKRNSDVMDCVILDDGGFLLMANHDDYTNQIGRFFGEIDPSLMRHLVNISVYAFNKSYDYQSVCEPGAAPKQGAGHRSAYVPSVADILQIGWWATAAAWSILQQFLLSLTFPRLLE
Sequence of Voltage-dependent calcium channel subunit alpha-2/delta-1 (P54289 957-1103 limits assumed): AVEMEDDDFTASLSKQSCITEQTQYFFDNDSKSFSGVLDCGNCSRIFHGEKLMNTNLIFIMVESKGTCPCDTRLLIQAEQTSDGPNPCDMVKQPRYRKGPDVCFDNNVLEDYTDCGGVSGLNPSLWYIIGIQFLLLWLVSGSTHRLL
Sequence of Vasopressin V1a receptor (P37288 whole entry): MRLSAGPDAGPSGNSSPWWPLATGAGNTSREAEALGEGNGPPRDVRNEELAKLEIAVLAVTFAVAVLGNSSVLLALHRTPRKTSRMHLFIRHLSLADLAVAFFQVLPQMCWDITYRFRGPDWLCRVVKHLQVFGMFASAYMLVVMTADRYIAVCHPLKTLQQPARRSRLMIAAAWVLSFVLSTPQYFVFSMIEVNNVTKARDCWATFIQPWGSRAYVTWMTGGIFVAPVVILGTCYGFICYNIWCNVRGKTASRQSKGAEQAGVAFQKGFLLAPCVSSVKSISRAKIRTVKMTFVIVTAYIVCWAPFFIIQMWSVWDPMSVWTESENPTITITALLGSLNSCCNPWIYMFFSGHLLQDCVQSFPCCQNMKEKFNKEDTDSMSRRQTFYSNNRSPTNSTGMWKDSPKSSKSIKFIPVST
Sequence of 5-hydroxytryptamine receptor 5A (P47898 whole entry): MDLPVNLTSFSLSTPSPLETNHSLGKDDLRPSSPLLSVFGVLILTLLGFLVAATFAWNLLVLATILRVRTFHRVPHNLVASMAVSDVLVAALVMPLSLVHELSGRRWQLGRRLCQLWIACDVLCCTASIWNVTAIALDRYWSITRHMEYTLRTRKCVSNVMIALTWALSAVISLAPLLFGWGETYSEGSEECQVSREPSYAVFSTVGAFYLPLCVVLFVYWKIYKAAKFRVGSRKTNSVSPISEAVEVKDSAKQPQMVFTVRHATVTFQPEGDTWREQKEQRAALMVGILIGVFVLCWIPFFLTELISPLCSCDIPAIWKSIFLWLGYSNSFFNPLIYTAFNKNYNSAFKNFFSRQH
Sequence of Cannabinoid receptor 1 (P21554 whole entry): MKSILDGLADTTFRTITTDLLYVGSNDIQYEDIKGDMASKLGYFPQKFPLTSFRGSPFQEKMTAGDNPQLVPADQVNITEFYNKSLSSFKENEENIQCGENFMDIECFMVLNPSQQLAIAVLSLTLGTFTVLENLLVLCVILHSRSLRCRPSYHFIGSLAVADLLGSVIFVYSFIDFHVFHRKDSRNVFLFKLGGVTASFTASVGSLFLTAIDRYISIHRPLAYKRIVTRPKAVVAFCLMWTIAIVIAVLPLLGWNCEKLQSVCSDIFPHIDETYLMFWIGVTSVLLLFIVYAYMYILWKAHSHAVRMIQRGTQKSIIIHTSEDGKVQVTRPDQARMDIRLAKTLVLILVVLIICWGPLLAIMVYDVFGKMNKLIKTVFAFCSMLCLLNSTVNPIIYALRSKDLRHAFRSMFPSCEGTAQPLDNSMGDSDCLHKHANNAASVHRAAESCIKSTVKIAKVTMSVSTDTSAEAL
Sequence of Sigma non-opioid intracellular receptor 1 (Q99720 whole entry): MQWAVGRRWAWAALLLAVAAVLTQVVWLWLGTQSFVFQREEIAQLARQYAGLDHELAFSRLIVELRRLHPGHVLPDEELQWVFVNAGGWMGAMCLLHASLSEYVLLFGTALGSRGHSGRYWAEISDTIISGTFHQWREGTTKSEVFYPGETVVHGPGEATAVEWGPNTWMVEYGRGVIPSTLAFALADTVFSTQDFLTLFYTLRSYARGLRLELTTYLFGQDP
Sequence of D(1B) dopamine receptor (P21918 whole entry): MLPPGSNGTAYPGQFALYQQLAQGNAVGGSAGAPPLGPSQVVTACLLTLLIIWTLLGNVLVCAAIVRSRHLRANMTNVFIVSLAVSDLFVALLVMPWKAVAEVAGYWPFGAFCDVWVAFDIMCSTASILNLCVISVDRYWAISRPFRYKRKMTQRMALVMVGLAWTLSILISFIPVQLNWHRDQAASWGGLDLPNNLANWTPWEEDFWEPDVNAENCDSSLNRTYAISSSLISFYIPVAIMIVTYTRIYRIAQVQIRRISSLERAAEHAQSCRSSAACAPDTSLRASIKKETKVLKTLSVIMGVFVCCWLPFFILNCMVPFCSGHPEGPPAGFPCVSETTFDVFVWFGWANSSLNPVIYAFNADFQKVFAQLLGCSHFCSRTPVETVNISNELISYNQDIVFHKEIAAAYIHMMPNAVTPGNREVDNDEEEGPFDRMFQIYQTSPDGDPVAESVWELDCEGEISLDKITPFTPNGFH

CCOc1cc(OC)c(CC(C)N)cc1OC (stereo unspecified)
7.16 µM: [3]
5.08 µM: [6]
> 10 µM: all other assays above

COc1cc(CCN)cc(OC)c1OC [3,4,5-trimethoxyphenylethylamine]
> 10 µM: all assays above

COc1ccc2[nH]cc(CCN(C)C(C)C)c2c1 [5-meo-mipt]
0.0198 µM: [3]
0.953 µM: [8]
not listed: Cannabinoid receptor 1
> 10 µM: all other assays above

COc1ccc2[nH]cc(CCN(C(C)C)C(C)C)c2c1 [5-meo-dipt]
1.23 µM: [3]
9.44 µM: [6]
> 10 µM: all other assays above

CN(C)CCc1c[nH]c2cc(F)ccc12 [6-f-dmt]
0.96 µM: [8]
0.0408 µM: [3]
6.29 µM: D(1B) dopamine receptor
6.89 µM: [6]
> 10 µM: all other assays above

CCSc1cc(OC)c(CCN)cc1OC [2C-T-2]
3.87 µM: [6]
0.692 µM: [1]
not listed: [3]
> 10 µM: all other assays above

CCCN(CCC)CCc1c[nH]c2ccccc12 [dpt]
0.284 µM: [3]
0.397 µM: [6]
4.37 µM: [8]
> 10 µM: all other assays above

CC(C)N(CCc1c[nH]c2ccccc12)C(C)C [dipt]
1.8 µM: [6]
3.42 µM: [3]
not listed: Histamine H3 receptor
> 10 µM: all other assays above

CCSc1cc(OC)c(CC(C)N)cc1OC (stereo unspecified) [2-(4-Ethylsulfanyl-2,5-dimethoxy-phenyl)-1-methyl-ethylamine]
0.239 µM: [6]
1.32 µM: [3]
1.91 µM: [1]
> 10 µM: all other assays above

CCSc1cc(OC)c(CC(N)CC)cc1OC (stereo unspecified) [1-(4-Ethylsulfanyl-2,5-dimethoxy-benzyl)-propylamine]
3.83 µM: [3]
1.59 µM: [8]
0.515 µM: [6]
> 10 µM: all other assays above

COc1cc(CC(C)N)c(OC)cc1Br (stereo not drawn) [2-(4-Bromo-2,5-dimethoxy-phenyl)-1-methyl-ethylamine((-)-DOB)]
0.506 µM: [3]
1.15 µM: [1]
2.19 µM: [6]
5.31 µM: [8]
not listed: Histamine H3 receptor
> 10 µM: all other assays above
